Reference: ChEMBL document CHEMBL4804286, “3-amino-4-(4-(4 (dimethylcarbamoyl) phenyl)-1,4-diazepan-1-yl) thieno [2,3-b] pyridine-2-carboxamide for use in cancer therapy and formulations comprising the same” (2020)
Values joined by “and” are separate entries in the source; they are usually repeats but may differ in a detail not shown here. Identical values can stand only once. Active and inactive are the calls of the source. No cut-off for these calls is given here.

Tests used:
[1] = target: Ephrin type-A receptor 2 (Homo sapiens) (UniProt P29317); experiment: Inhibition of human EPHA2 assessed as percent of control at 2000 nM by KINOMEscan assay relative to control; design: scale not given: the % may be the effect or the level left
[2] = target: STE20-like serine/threonine-protein kinase (Homo sapiens) (UniProt Q9H2G2); experiment: Inhibition of human SLK assessed as percent of control at 2000 nM by KINOMEscan assay relative to control; design: scale not given: the % may be the effect or the level left
[3] = test system: Proto-oncogene tyrosine-protein kinase receptor Ret (Homo sapiens), P07949 [V804M]; experiment: Inhibition of human RET V804M mutant assessed as percent of control at 2000 nM by KINOMEscan assay relative to control; design: scale not given: the % may be the effect or the level left
[4] = target: Mitogen-activated protein kinase kinase kinase 4 (Homo sapiens) (UniProt Q9Y6R4); experiment: Inhibition of human MAP3K4 assessed as percent of control at 2000 nM by KINOMEscan assay relative to control; design: scale not given: the % may be the effect or the level left
[5] = target: Myosin-IIIa (Homo sapiens) (UniProt Q8NEV4); experiment: Inhibition of human MYO3A assessed as percent of control at 2000 nM by KINOMEscan assay relative to control; design: scale not given: the % may be the effect or the level left
[6] = target: Cyclin-dependent kinase 2 homolog (Plasmodium falciparum (isolate K1 / Thailand)) (UniProt Q07785); experiment: Inhibition of Plasmodium falciparum PFPK5 assessed as percent of control at 2000 nM by KINOMEscan assay relative to control; design: scale not given: the % may be the effect or the level left
[7] = target: Dual specificity protein kinase CLK2 (Homo sapiens) (UniProt P49760); experiment: Inhibition of human CLK2 assessed as percent of control at 2000 nM by KINOMEscan assay relative to control; design: scale not given: the % may be the effect or the level left
[8] = target: Mitogen-activated protein kinase 6 (Homo sapiens) (UniProt Q16659); experiment: Inhibition of human ERK3 assessed as percent of control at 2000 nM by KINOMEscan assay relative to control; design: scale not given: the % may be the effect or the level left
[9] = target: Tyrosine-protein kinase receptor UFO (Homo sapiens) (UniProt P30530); experiment: Inhibition of human AXL assessed as percent of control at 2000 nM by KINOMEscan assay relative to control; design: scale not given: the % may be the effect or the level left
[10] = target: Serine/threonine-protein kinase Nek2 (Homo sapiens) (UniProt P51955); experiment: Inhibition of human NEK2 assessed as percent of control at 2000 nM by KINOMEscan assay relative to control; design: scale not given: the % may be the effect or the level left
[11] = target: Eukaryotic translation initiation factor 2-alpha kinase 1 (Homo sapiens) (UniProt Q9BQI3); experiment: Inhibition of human EIF2AK1 assessed as percent of control at 2000 nM by KINOMEscan assay relative to control; design: scale not given: the % may be the effect or the level left
[12] = target: Tyrosine-protein kinase JAK2 (Homo sapiens) (UniProt O60674); experiment: Inhibition of human JAK2 JH1 catalytic domain assessed as percent of control at 2000 nM by KINOMEscan assay relative to control; design: scale not given: the % may be the effect or the level left
[13] = test system: Myc-CaP; experiment: Inhibition of colony formation in murine castration-resistant Myc-CaP cells at 1 uM in presence of 5 uM enzalutamide by clonogenic assay relative to control; assay type: functional; conditions: Mus musculus
[14] = target: Microtubule-associated serine/threonine-protein kinase 1 (Homo sapiens) (UniProt Q9Y2H9); experiment: Inhibition of human MAST1 assessed as percent of control at 2000 nM by KINOMEscan assay relative to control; design: scale not given: the % may be the effect or the level left
[15] = test system: Phosphatidylinositol 4,5-bisphosphate 3-kinase catalytic subunit alpha isoform (Homo sapiens), P42336 [E545A]; experiment: Inhibition of human PIK3CA E545A mutant assessed as percent of control at 2000 nM by KINOMEscan assay relative to control; design: scale not given: the % may be the effect or the level left
[16] = target: Activin receptor type-2A (Homo sapiens) (UniProt P27037); experiment: Inhibition of human ACVR2A assessed as percent of control at 2000 nM by KINOMEscan assay relative to control; design: scale not given: the % may be the effect or the level left
[17] = target: 1-phosphatidylinositol 3-phosphate 5-kinase (Homo sapiens) (UniProt Q9Y2I7); experiment: Inhibition of human PIKFYVE assessed as percent of control at 2000 nM by KINOMEscan assay relative to control; design: scale not given: the % may be the effect or the level left
[18] = target: Protein odd-skipped-related 1 (Homo sapiens) (UniProt Q8TAX0); experiment: Inhibition of human OSR1 assessed as percent of control at 2000 nM by KINOMEscan assay relative to control; design: scale not given: the % may be the effect or the level left
[19] = test system: Phosphatidylinositol 4,5-bisphosphate 3-kinase catalytic subunit alpha isoform (Homo sapiens), P42336 [Q546K]; experiment: Inhibition of human PIK3CA Q546K mutant assessed as percent of control at 2000 nM by KINOMEscan assay relative to control; design: scale not given: the % may be the effect or the level left
[20] = target: ALK tyrosine kinase receptor (Homo sapiens) (UniProt Q9UM73); experiment: Inhibition of human ALK assessed as percent of control at 2000 nM by KINOMEscan assay relative to control; design: scale not given: the % may be the effect or the level left
[21] = target: Casein kinase I isoform alpha-like (Homo sapiens) (UniProt Q8N752); experiment: Inhibition of human CSNK1A1L assessed as percent of control at 2000 nM by KINOMEscan assay relative to control; design: scale not given: the % may be the effect or the level left
[22] = target: Serine/threonine-protein kinase SBK1 (Homo sapiens) (UniProt Q52WX2); experiment: Inhibition of human SBK1 assessed as percent of control at 2000 nM by KINOMEscan assay relative to control; design: scale not given: the % may be the effect or the level left
[23] = test system: Receptor-type tyrosine-protein kinase FLT3 (Homo sapiens), P36888 [D835H]; experiment: Inhibition of human FLT3 D835H mutant assessed as percent of control at 2000 nM by KINOMEscan assay relative to control; design: scale not given: the % may be the effect or the level left
[24] = target: Phosphatidylinositol 4-kinase beta (Homo sapiens) (UniProt Q9UBF8); experiment: Inhibition of human PIK4CB assessed as percent of control at 2000 nM by KINOMEscan assay relative to control; design: scale not given: the % may be the effect or the level left
[25] = target: Tyrosine-protein kinase Fyn (Homo sapiens) (UniProt P06241); experiment: Inhibition of human FYN assessed as percent of control at 2000 nM by KINOMEscan assay relative to control; design: scale not given: the % may be the effect or the level left
[26] = target: Calcium/calmodulin-dependent protein kinase type 1 (Homo sapiens) (UniProt Q14012); experiment: Inhibition of human CAMK1 assessed as percent of control at 2000 nM by KINOMEscan assay relative to control; design: scale not given: the % may be the effect or the level left
[27] = target: Activin receptor type-1B (Homo sapiens) (UniProt P36896); experiment: Inhibition of human ACVR1B assessed as percent of control at 2000 nM by KINOMEscan assay relative to control; design: scale not given: the % may be the effect or the level left
[28] = target: Receptor-interacting serine/threonine-protein kinase 1 (Homo sapiens) (UniProt Q13546); experiment: Inhibition of human RIPK1 assessed as percent of control at 2000 nM by KINOMEscan assay relative to control; design: scale not given: the % may be the effect or the level left
[29] = target: Serine/threonine-protein kinase PLK3 (Homo sapiens) (UniProt Q9H4B4); experiment: Inhibition of human PLK3 assessed as percent of control at 2000 nM by KINOMEscan assay relative to control; design: scale not given: the % may be the effect or the level left
[30] = target: Ribosomal protein S6 kinase alpha-1 (Homo sapiens) (UniProt Q15418); experiment: Inhibition of human C-terminal RSK1 kinase domain 2 assessed as percent of control at 2000 nM by KINOMEscan assay relative to control; design: scale not given: the % may be the effect or the level left

Sequence of Tyrosine-protein kinase Fyn (Homo sapiens) (P06241 2-537 limits assumed): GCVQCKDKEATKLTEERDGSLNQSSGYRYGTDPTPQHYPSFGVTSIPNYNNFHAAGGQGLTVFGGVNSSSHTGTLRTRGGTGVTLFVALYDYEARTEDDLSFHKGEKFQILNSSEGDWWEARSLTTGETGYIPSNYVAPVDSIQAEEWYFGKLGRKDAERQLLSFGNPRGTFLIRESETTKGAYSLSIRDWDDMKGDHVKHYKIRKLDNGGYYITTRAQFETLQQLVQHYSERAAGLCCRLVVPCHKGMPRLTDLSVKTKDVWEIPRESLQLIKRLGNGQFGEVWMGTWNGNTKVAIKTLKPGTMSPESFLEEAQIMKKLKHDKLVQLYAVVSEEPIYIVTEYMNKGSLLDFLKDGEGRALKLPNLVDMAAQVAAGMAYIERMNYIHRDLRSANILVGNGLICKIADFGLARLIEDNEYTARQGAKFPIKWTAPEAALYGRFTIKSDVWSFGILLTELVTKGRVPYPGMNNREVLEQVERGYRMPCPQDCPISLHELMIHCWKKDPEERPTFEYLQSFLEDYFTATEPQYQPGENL
Sequence of Serine/threonine-protein kinase SBK1 (Homo sapiens) (Q52WX2 whole entry): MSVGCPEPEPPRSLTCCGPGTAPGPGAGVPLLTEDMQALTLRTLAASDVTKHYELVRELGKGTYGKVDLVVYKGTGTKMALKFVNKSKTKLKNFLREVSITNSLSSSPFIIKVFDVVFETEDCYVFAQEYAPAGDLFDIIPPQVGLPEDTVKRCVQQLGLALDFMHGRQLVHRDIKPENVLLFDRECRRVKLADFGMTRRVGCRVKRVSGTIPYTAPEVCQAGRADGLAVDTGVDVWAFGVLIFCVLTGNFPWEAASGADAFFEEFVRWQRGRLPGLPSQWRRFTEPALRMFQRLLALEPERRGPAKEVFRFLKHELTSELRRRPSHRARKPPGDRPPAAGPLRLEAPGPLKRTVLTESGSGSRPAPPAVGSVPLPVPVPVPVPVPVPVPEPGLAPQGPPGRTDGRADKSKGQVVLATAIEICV
Sequence of 1-phosphatidylinositol 3-phosphate 5-kinase (Homo sapiens) (Q9Y2I7 whole entry): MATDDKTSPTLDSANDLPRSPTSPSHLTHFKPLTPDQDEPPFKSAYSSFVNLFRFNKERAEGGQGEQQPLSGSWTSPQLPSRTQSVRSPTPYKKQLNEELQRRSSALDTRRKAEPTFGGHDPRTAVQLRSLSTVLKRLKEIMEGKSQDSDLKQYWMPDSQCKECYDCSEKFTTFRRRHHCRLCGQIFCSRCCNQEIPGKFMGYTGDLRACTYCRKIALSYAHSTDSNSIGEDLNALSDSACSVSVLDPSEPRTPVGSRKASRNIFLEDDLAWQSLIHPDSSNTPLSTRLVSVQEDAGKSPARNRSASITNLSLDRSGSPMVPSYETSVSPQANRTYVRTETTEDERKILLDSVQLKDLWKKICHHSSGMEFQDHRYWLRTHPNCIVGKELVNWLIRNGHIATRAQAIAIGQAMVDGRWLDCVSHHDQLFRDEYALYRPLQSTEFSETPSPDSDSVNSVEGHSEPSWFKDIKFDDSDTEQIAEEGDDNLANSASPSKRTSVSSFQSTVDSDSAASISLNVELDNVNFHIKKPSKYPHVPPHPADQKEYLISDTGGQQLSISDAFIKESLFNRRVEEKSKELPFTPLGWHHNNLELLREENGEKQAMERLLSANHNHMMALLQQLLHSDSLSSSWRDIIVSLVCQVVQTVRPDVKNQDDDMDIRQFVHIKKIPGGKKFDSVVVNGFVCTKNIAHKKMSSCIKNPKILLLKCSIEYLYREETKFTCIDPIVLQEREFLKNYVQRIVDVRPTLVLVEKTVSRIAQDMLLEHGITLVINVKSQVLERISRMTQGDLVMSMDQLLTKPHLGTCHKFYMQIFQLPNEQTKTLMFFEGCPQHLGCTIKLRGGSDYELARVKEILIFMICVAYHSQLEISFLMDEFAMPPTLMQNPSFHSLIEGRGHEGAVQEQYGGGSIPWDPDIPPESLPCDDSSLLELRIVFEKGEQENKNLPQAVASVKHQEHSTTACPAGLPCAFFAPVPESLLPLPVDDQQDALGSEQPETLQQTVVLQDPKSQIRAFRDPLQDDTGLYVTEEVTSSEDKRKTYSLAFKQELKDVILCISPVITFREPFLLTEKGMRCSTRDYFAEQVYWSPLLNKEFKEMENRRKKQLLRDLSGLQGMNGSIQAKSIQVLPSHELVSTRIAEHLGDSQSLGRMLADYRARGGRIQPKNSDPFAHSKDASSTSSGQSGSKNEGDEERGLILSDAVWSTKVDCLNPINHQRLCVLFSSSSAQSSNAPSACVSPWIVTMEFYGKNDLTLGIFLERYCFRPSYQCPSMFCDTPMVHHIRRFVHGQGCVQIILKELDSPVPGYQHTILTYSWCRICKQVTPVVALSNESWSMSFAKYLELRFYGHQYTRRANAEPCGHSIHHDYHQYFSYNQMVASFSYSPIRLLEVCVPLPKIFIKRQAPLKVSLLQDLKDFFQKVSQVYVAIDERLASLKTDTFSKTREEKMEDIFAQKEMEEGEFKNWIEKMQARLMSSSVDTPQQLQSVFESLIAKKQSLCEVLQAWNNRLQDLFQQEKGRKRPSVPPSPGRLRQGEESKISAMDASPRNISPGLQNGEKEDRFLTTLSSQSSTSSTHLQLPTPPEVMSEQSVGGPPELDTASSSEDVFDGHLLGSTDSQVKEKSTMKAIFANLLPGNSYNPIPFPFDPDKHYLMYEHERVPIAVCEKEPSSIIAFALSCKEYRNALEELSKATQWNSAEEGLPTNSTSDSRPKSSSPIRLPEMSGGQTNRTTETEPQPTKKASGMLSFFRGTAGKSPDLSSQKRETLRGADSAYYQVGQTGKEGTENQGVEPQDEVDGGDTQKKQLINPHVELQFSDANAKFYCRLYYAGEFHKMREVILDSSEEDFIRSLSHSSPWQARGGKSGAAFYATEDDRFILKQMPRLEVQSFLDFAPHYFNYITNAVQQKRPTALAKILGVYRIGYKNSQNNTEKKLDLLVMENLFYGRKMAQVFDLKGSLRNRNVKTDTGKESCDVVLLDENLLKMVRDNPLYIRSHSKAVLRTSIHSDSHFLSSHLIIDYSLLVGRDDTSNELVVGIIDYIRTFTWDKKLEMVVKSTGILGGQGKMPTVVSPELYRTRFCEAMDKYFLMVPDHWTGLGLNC
Sequence of Serine/threonine-protein kinase PLK3 (Homo sapiens) (Q9H4B4 whole entry, looked up, the tested form may be a part): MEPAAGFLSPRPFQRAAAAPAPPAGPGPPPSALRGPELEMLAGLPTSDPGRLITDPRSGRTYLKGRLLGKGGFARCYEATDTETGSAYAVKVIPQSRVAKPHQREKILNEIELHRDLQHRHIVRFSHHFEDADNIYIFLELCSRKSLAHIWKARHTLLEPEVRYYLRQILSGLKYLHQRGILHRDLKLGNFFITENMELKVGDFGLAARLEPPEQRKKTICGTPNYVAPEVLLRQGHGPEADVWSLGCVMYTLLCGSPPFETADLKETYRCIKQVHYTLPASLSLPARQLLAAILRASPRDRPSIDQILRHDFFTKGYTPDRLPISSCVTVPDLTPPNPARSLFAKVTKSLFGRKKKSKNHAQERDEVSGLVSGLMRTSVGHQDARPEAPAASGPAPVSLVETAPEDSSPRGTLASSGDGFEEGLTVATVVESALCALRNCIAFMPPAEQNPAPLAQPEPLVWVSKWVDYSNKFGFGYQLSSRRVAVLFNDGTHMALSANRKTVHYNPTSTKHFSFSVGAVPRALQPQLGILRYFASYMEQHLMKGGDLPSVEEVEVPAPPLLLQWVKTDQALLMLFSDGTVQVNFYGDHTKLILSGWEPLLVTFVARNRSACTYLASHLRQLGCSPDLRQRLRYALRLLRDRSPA
Sequence of STE20-like serine/threonine-protein kinase (Homo sapiens) (Q9H2G2 whole entry, looked up): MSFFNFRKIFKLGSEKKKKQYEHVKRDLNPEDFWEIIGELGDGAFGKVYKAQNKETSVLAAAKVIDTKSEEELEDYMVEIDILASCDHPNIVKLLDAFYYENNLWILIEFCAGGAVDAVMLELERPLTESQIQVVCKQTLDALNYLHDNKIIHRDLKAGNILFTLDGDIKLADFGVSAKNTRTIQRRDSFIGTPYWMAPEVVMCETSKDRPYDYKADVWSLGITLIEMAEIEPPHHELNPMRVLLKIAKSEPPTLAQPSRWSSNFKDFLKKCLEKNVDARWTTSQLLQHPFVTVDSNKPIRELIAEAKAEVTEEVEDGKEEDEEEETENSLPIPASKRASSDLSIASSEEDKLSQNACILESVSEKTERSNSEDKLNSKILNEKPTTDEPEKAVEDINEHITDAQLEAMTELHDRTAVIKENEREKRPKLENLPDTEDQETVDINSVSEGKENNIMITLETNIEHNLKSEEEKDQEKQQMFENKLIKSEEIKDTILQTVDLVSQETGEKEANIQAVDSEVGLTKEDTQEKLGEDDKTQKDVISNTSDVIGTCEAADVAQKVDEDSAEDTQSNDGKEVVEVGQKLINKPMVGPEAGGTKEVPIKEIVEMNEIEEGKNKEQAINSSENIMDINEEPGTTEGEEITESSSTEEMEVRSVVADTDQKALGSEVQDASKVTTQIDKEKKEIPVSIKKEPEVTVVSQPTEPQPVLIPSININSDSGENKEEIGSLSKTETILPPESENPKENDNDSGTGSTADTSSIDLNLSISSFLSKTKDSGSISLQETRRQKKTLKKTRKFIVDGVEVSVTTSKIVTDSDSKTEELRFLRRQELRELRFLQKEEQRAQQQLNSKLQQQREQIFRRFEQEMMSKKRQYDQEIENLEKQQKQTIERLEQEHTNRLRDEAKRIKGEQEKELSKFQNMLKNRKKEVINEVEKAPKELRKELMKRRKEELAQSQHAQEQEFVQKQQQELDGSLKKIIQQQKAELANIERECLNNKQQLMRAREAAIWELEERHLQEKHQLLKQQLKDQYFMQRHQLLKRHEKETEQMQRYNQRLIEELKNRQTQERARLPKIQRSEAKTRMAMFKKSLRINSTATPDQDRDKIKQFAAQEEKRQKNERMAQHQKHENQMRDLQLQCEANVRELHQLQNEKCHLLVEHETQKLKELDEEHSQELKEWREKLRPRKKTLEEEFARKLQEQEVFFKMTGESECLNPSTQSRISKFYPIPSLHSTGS

With CN(C)C(=O)c1ccc(N2CCCN(c3ccnc4sc(C(N)=O)c(N)c34)CC2)cc1 as the molecule, how does the Activity [1] read?
Its Activity is 95% and 100%.

What about the Activity [2] of the same molecule?
The Activity was 56% and 54%.

What about the Activity [3] of the same molecule?
Its Activity is 100%.

What about the Activity [4] of the same molecule?
The Activity was 90% and 100%.

And the Activity [5]?
The Activity was 100%.

And the Activity [6]?
Its Activity is 68% and 67%.

What about the Activity [7] of the same molecule?
Its Activity is 75% and 83%.

What about the Activity [8] of the same molecule?
The Activity was 88% and 94%.

What about the Activity [9] of the same molecule?
The Activity was 99% and 96%.

And the Activity [10]?
The Activity was 95%.

What about the Activity [11] of the same molecule?
The Activity was 93% and 78%.

What about the Activity [12] of the same molecule?
The Activity was 100% and 93%.

And the inhibition [13]?
Its inhibition is “Active”.

What about the Activity [14] of the same molecule?
Its Activity is 92%.

What about the Activity [15] of the same molecule?
Its Activity is 100% and 92%.

What about the Activity [16] of the same molecule?
The Activity was 95% and 92%.

What about the Activity [17] of the same molecule?
The Activity was 91% and 98%.

And the Activity [18]?
Its Activity is 100% and 88%.

And the Activity [19]?
The Activity was 66% and 72%.

What about the Activity [20] of the same molecule?
Its Activity is 81% and 78%.

What about the Activity [21] of the same molecule?
The Activity was 67%.

What about the Activity ([21]; INHIBITOR) of the same molecule?
Its Activity is 37%.

What about the Activity [22] of the same molecule?
Its Activity is 100% and 83%.

And the Activity [23]?
The Activity was 63% and 76%.

And the Activity [24]?
The Activity was 65%.

And the Activity ([24]; INHIBITOR)?
The Activity was 33%.

What about the Activity [25] of the same molecule?
Its Activity is 99% and 97%.

And the Activity [26]?
The Activity was 83% and 95%.

And the Activity [27]?
The Activity was 100% and 99%.

What about the Activity [28] of the same molecule?
Its Activity is 99% and 100%.

What about the Activity [29] of the same molecule?
Its Activity is 86% and 90%.

What about the Activity [30] of the same molecule?
Its Activity is 100% and 86%.
